Experimental data published in US9290485B2, “N-((6-amino-pyridin-3-yl)methyl)-heteroaryl-carboxamides” (NOVARTIS AG, priority 2010, dated 2016).

Molecular target: human plasma kallikrein (Homo sapiens (Human), UniProt P03952)
Conditions: human plasma kallikrein 25 pM, substrate 0.5 uM, 1 hour pre-incubation at room temperature, read at t=60 min
Method: All other chemicals were of analytical grade.
A stock solution of 0.17 mg/ml deinonized water was stored at −80° C. Enzymatic reactions were conducted in ‘assay buffer’, comprising 50 mM Hepes/NaOH at pH 7.8, 150 mM NaCl, 1 mM EDTA and 0.05% (w/v) CHAPS.
Both, enzyme and substrate were diluted in assay buffer.
All protein and peptide containing solutions were handled in siliconized tubes (Life Systems Design, Merenschwand, Switzerland). […] Plate measurements were conducted by the means of a Safire2 reader (TECAN, Maennedorf, Switzerland). The Safire2 is a monochomator-based instrument and wavelengths of 485 nm and 535 nm were taken for fluorescence excitation and emission acquisition, respectively. The bandwidths were set to 10 nm in both the excitation and the emission path. The fluorescence in each well was excited by three flashes per measurement.
The test compound was dissolved in 90% (v/v) DMSO/water. For the assays, 250 nL of the 90% (v/v) DMSO/water solution or compound solution were added per well, followed by the addition of 12.5 μl protease solution (protease in assay buffer). […] After 1 hour of pre-incubation at room temperature, the reactions were started by the addition of 12.5 μl substrate solution (in assay buffer, final assay concentration was 0.5 uM). After the addition of the substrate solution, the final DMSO concentration in the assay was 0.9% (v/v). […] The IC50 value was calculated from the plot of percentage of inhibition vs. inhibitor concentration by a logistics fit according to the following equation: y=A2+(A1−A2)/(1+(x/IC50)^p) where y is the %-inhibition at the inhibitor concentration, x. A1 is the lowest inhibition value, i.e. 0%, and A2 the maximum inhibition value, i.e. 100%. The exponent, p, is the Hill coefficient. The curve fitting was conducted with the non-linear regression routine of the analysis software Origin 7.55R6 (OriginLab Corporation).

Chain of human plasma kallikrein (P03952 whole entry, looked up): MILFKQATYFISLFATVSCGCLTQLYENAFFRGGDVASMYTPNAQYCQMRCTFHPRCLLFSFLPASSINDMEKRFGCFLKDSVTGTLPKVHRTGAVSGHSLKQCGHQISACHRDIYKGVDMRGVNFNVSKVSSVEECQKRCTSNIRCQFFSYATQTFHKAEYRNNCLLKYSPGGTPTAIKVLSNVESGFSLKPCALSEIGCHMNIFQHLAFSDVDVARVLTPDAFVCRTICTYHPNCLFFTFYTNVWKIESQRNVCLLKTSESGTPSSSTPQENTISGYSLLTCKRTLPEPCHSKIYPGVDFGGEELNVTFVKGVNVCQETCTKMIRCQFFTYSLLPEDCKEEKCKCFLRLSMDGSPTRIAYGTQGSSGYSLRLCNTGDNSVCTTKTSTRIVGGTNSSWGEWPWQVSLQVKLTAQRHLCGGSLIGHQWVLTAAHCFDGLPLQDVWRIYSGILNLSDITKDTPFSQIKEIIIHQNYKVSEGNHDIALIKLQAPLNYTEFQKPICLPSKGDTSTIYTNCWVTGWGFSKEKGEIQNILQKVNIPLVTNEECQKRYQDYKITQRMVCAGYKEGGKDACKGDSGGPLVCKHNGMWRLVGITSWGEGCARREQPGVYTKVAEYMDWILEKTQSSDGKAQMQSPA
Chain of human plasma kallikrein (P03952 whole entry partner, looked up): as the sequence (P03952 whole entry, looked up) above

SMILES | IC50 [nM]
Cc1cc(N)nc(C)c1CNC(=O)c1cc(Cc2ccccc2)no1 [Example 3, N-((6-amino-2,4-dimethylpyridin-3-yl)methyl)-3-benzylisoxazole-5-carboxamide] | 2260
Cc1cc(N)nc(C)c1CNC(=O)c1nnc(Cc2ccccc2)o1 [Example 4, N-((6-amino-2,4-dimethylpyridin-3-yl)methyl)-5-benzyl-1,3,4-oxadiazole-2-carboxamide] | 7600
Cc1cc(N)nc(C)c1CNC(=O)c1nc(Cc2ccccc2)no1 [Example 5, N-((6-amino-2,4-dimethylpyridin-3-yl)methyl)-3-benzyl-1,2,4-oxadiazole-5-carboxamide] | 4500
Cc1cc(N)nc(C)c1CNC(=O)c1cn(Cc2ccc(Cn3cccn3)cc2)cn1 [Example 6, 1-(4-((1H-pyrazol-1-yl)methyl)benzyl)-N-((6-amino-2,4-dimethylpyridin-3-yl)methyl)-1H-imidazole-4-carboxamide] | 0.2
Cc1cc(N)nc(C)c1CNC(=O)c1ncc(Cc2ccccc2)o1 [Example 7, N-((6-amino-2,4-dimethylpyridin-3-yl)methyl)-5-benzyloxazole-2-carboxamide] | 2030
COc1ccc(Cc2nc(C(=O)NCc3c(C)cc(N)nc3C)co2)cc1 [Example 8, N-((6-amino-2,4-dimethylpyridin-3-yl)methyl)-2-(4-methoxybenzyl)oxazole-4-carboxamide] | 2640
Cc1cc(N)nc(C)c1CNC(=O)c1cnn(C(CO)c2ccccc2)c1 (stereo not shown) [Example 11, N-((6-amino-2,4-dimethylpyridin-3-yl)methyl)-1-(2-hydroxy-1-phenylethyl)-1H-pyrazole-4-carboxamide] | 12200
COc1ccc(S(=O)(=O)n2ccc(C(=O)NCc3c(C)cc(N)nc3C)c2)cc1 [Example 12, 1-(4-Methoxy-benzenesulfonyl)-1H-pyrrole-3-carboxylic acid (6-amino-2,4-dimethyl-pyridin-3-ylmethyl)-amide] | 1370
COc1cc(N)nc(C)c1CNC(=O)c1cnn(Cc2ccccc2)c1 [Example 14, N-((6-amino-4-methoxy-2-methylpyridin-3-yl)methyl)-1-benzyl-1H-pyrazole-4-carboxamide] | 320
Cc1nc(N)cc(OC2CCCCC2)c1CNC(=O)c1cnn(Cc2ccccc2)c1 [Example 15, N-((6-amino-4-(cyclohexyloxy)-2-methylpyridin-3-yl)methyl)-1-benzyl-1H-pyrazole-4-carboxamide] | 230
Cc1cc(N)nc(C)c1CNC(=O)c1cnn(Cc2ccc(CN3C(=O)CCC3=O)cc2)c1 [Example 17, N-((6-amino-2,4-dimethylpyridin-3-yl)methyl)-1-(4-((2,5-dioxopyrrolidin-1-yl)methyl)benzyl)-1H-pyrazole-4-carboxamide] | 98
Cc1cc(N)nc(C)c1CNC(=O)c1cnn(Cc2ccncc2)c1 [Example 18, N-((6-amino-2,4-dimethylpyridin-3-yl)methyl)-1-(pyridin-4-ylmethyl)-1H-pyrazole-4-carboxamide] | 1100
Cc1cc(N)nc(C)c1CNC(=O)c1cn(Cc2ccccc2)nn1 [Example 21, N-((6-amino-2,4-dimethylpyridin-3-yl)methyl)-1-benzyl-1H-1,2,3-triazole-4-carboxamide] | 2540
Cc1cc(N)nc(C)c1CNC(=O)c1cn(Cc2ccccc2)cn1 [Example 22, N-((6-amino-2,4-dimethylpyridin-3-yl)methyl)-1-benzyl-1H-imidazole-4-carboxamide] | 1700
Cc1cc(N)nc(C)c1CNC(=O)c1cn(Cc2ccc(Oc3ccccc3)cc2)cn1 [Example 23, N-((6-amino-2,4-dimethylpyridin-3-yl)methyl)-1-(4-phenoxybenzyl)-1H-imidazole-4-carboxamide] | 9
Cc1cc(N)nc(C)c1CNC(=O)c1cn(Cc2ccc(-n3cccn3)cc2)cn1 [Example 24, 1-(4-(1H-pyrazol-1-yl)benzyl)-N-((6-amino-2,4-dimethylpyridin-3-yl)methyl)-1H-imidazole-4-carboxamide] | 238
Cc1cc(N)nc(C)c1CNC(=O)c1cnn(Cc2csc(Nc3ccccc3)n2)c1 [Example 25, N-((6-amino-2,4-dimethylpyridin-3-yl)methyl)-1-((2-(phenylamino)thiazol-4-yl)methyl)-1H-pyrazole-4-carboxamide] | 109
Cc1cc(N)nc(C)c1CNC(=O)c1cnn(Cc2sc(-c3ccccc3)nc2C)c1 [Example 26, N-((6-amino-2,4-dimethylpyridin-3-yl)methyl)-1-((4-methyl-2-phenylthiazol-5-yl)methyl)-1H-pyrazole-4-carboxamide] | 19
Cc1cc(N)nc(C)c1CNC(=O)c1cnn(Cc2csc(Cc3ccccc3)n2)c1 [Example 27, N-((6-amino-2,4-dimethylpyridin-3-yl)methyl)-1-((2-benzylthiazol-4-yl)methyl)-1H-pyrazole-4-carboxamide] | 21
Cc1cc(N)nc(C)c1CNC(=O)c1cnn(Cc2csc(C(C)(C)C)n2)c1 [Example 28, N-((6-amino-2,4-dimethylpyridin-3-yl)methyl)-1-((2-tert-butylthiazol-4-yl)methyl)-1H-pyrazole-4-carboxamide] | 343
Cc1cc(N)nc(C)c1CNC(=O)c1cnn(Cc2csc(CC(=O)N(C)C)n2)c1 [Example 29, N-((6-amino-2,4-dimethylpyridin-3-yl)methyl)-1-((2-(2-(dimethylamino)-2-oxoethyl)thiazol-4-yl)methyl]-1H-pyrazole-4-carboxamide] | 248
Cc1cc(N)nc(C)c1CNC(=O)c1cnn(Cc2cn3ccccc3n2)c1 [Example 30, N-((6-amino-2,4-dimethylpyridin-3-yl)methyl)-1-(imidazo[1,2-a]pyridin-2-ylmethyl)-1H-pyrazole-4-carboxamide] | 204
Cc1cc(N)nc(C)c1CNC(=O)c1cnn(Cc2cc3ccccc3o2)c1 [Example 31] | 143
Cc1cc(N)nc(C)c1CNC(=O)c1cnn(Cc2coc(-c3ccccc3)n2)c1 [Example 32, N-((6-amino-2,4-dimethylpyridin-3-yl)methyl)-1-((2-phenyloxazol-4-yl)methyl)-1H-pyrazole-4-carboxamide] | 41
Cc1cc(N)nc(C)c1CNC(=O)c1cnn(Cc2ccc3[nH]cnc3c2)c1 [Example 33, 1-((1H-benzo[d]imidazol-5-yl)methyl)-N-((6-amino-2,4-dimethylpyridin-3-yl)methyl)-1H-pyrazole-4-carboxamide] | 262
Cc1cc(N)nc(C)c1CNC(=O)c1cnn(Cc2ccc3ccn(C)c3c2)c1 [Example 34, N-((6-amino-2,4-dimethylpyridin-3-yl)methyl)-1-((1-methyl-1H-indol-6-yl)methyl)-1H-pyrazole-4-carboxamide] | 46
Cc1cc(N)nc(C)c1CNC(=O)c1cnn(Cc2ncoc2-c2ccccc2)c1 [Example 35, N-((6-amino-2,4-dimethylpyridin-3-yl)methyl)-1-((5-phenyloxazol-4-yl)methyl)-1H-pyrazole-4-carboxamide] | 3900
Cc1cc(N)nc(C)c1CNC(=O)c1cnn(S(=O)(=O)c2cccc(C#N)c2)c1 [Example 37, N-((6-amino-2,4-dimethylpyridin-3-yl)methyl)-1-(3-cyanophenylsulfonyl)-1H-pyrazole-4-carboxamide] | 5300
